Experimental data as given in patent publication US11786485B2, “Methods and compositions for treating advanced stage non-small cell lung cancer” (Golden Biotechnology Corporation, priority 2016, dated 2023).

How the values were obtained:
[1] = system: different cancer cell lines; test: Cancer cell death, IC50; format: cell-based
Source text: Compound 1 inhibited isoprenyltransferase activity and molecular docking analysis predicted that the isoprene unit and the 4′-hydroxy group of Compound 1 may play important roles in the interaction between Compound 1 and isoprenyltransferase. In addition, Compound 1 increased the expression level of beclin-1 (three-fold), LC3-II/I (P<0.01) and […] formation in lung cancer cells. Compound 1 may therefore inhibit Ras activation through inhibition of isoprenyltransferase, leading to autophagic cell death.

[2] = Safety pharmacology: central nervous system effect; format: in vivo; conditions: Sprague-Dawley rat
hERG ion channel = hERG ion channel (Homo sapiens, UniProt Q12809); test: Safety pharmacology: binding activity with hERG ion channel in vitro
[3] = Safety pharmacology: cardiovascular effect; format: in vivo; conditions: beagle dogs
[4] = Safety pharmacology: respiratory system effect; format: in vivo; conditions: Sprague-Dawley rat
[5] = Preclinical pharmacokinetic studies; format: in vivo; conditions: preclinical PK studies
[6] = Tissue distribution in rat; format: in vivo; conditions: previous study
[7] = 7-day toxicity study in rats; conditions: Sprague-Dawley, rat, in vivo, 7-day study, read-out: maximum tolerated dose (MTD)
[8] = 7-day toxicity study in dogs; conditions: beagle, dog, in vivo, 7-day study, read-out: maximum tolerated dose (MTD)
[9] = 28-day toxicity study in rats; format: in vivo; conditions: rat
Experimental: . Two 28-days toxicity studies were conducted to determine no observed adverse effect level (NOAEL) for Sprague-Dawley rats and beagle dogs. […]

[10] = 28-day toxicity study in dogs; format: in vivo; conditions: 28-day study, dog
Experimental: […]. Two 28-days toxicity studies were conducted to determine no observed adverse effect level (NOAEL) for Sprague-Dawley rats and beagle dogs. […].

[11] = Toxicokinetic evaluations in rats and dogs; format: in vivo; conditions: for dose proportionality of exposure: rat and dog
Experimental: Toxicokinetic evaluations were performed on a 7-day dog study (100, 250, 500 mg/kg/day single dose, 500 mg/kg/day 3 days dose) and the two 28-day studies mentioned above (Rat: 10, 30, 100 mg/kg/day single and 28 days dose; Dog: 10, 30, 100 mg/kg/day single and 28 days dose).

[12] = Genotoxicity tests (Ames, mammalian cell gene mutation, micronucleus, erythrocyte micronucleus)
[13] = Reproductive toxicity in vivo study; conditions: up to 80 mg/kg/day, Sprague-Dawley rats
[14] = Phase 1 clinical study: safety/tolerability; format: in vivo
Experimental: (§1) A first-in-human phase 1 study was performed to determine the MTD and to evaluate PK, safety/tolerability and efficacy profiles of exemplary Compound 1 in NSCLC patients who are refractory to conventional treatment modalities. This open-label, non-randomized, dose-escalation study, which completed in February 2013, enrolled a total of 13 patients; seven males and six females, all of whom were Asian. A total of five patients were enrolled an accelerated titration phase (one patient each in the 50, 100, 200, 300, and 450 mg dose groups) and eight patients were enrolled in a standard titration phase (three patients in the 450 mg dose group and five patients in the 600 mg dose group).

[15] = Phase 1 clinical study: pharmacokinetics; format: in vivo
Experimental: as §1
Compound 1 will be administered as a single agent in this study at a dose of 600 mg per day (200 mg t.i.d. administered at 8-hour intervals). This dose regimen was chosen based on results from the Phase 1 clinical study involving NSCLC patients refractory to conventional treatment modalities, which reported good tolerability of Compound 1 up to 600 mg/day.

NSCLC = test: Phase 1 clinical study: efficacy (tumor overall response); format: in vivo, human; conditions: end of treatment
Experimental: as §1
The PPS was defined in the Phase 1 study as all patients who completed at least three cycles of treatment with proper imaging assessment (RECIST v.1.1).

[16] = system: stage IV (including pleural effusion) non-squamous NSCLC; test: Phase II study in stage IV non-squamous NSCLC patients; format: in vivo, human
Source text: This is a single-arm, open-label, Phase II study in KRAS-positive and KRAS-negative patients with stage IV (including pleural effusion) non-squamous NSCLC who have failed two lines of anti-cancer therapy. This is defined as patients with radiologically confirmed disease progression following greater than or equal to two, but less than or equal to four, prior lines of systemic anti-cancer therapy. A maximum of 60 evaluable patients with NSCLC will receive Compound 1, of which 30 patients will be KRAS-positive and 30 patients KRAS-negative. An evaluable patient will have received at least one dose of Compound 1 and have a valid baseline tumor assessment. Enrollment will continue until the target number of evaluable patients has been enrolled.
Written informed consent must be obtained from all patients before initiating Screening. The Screening period will be up to 42 days in duration (Days −42 to −1). Following completion of all Screening assessments and confirmation of eligibility criteria, patients will receive Compound 1 200 mg three-times-a-day (t.i.d. at 8-hour intervals) on Day 0 for 12 weeks (one treatment cycle) or until documented evidence of disease progression, unacceptable toxicity, non-compliance or withdrawal of consent by the patient, or the investigator decides to discontinue treatment, whichever comes first. Study drug should be taken at 8-hour intervals. The time of study drug administration should be recorded in the patient diary.
The primary efficacy endpoint is progression-free survival (PFS) rate at 12 weeks, which is defined as the proportion of patients alive and progression-free at Week 12. Patients will be progression-free if they have no evidence of progressive disease (defined according to RECIST guidelines, version 1.1) from the start of treatment to Week 12.
The primary endpoint is the PFS rate at 12 weeks, defined as the proportion of patients alive and progression-free at Week 12. […]
Tumor response will be assessed at 6-week intervals during the first treatment cycle using the RECIST criteria version 1.1. […]

[17] = system: epidermal growth factor receptor (EGFR); conditions: human, in vivo; cited from earlier work

Chain of hERG ion channel (Q12809 whole entry): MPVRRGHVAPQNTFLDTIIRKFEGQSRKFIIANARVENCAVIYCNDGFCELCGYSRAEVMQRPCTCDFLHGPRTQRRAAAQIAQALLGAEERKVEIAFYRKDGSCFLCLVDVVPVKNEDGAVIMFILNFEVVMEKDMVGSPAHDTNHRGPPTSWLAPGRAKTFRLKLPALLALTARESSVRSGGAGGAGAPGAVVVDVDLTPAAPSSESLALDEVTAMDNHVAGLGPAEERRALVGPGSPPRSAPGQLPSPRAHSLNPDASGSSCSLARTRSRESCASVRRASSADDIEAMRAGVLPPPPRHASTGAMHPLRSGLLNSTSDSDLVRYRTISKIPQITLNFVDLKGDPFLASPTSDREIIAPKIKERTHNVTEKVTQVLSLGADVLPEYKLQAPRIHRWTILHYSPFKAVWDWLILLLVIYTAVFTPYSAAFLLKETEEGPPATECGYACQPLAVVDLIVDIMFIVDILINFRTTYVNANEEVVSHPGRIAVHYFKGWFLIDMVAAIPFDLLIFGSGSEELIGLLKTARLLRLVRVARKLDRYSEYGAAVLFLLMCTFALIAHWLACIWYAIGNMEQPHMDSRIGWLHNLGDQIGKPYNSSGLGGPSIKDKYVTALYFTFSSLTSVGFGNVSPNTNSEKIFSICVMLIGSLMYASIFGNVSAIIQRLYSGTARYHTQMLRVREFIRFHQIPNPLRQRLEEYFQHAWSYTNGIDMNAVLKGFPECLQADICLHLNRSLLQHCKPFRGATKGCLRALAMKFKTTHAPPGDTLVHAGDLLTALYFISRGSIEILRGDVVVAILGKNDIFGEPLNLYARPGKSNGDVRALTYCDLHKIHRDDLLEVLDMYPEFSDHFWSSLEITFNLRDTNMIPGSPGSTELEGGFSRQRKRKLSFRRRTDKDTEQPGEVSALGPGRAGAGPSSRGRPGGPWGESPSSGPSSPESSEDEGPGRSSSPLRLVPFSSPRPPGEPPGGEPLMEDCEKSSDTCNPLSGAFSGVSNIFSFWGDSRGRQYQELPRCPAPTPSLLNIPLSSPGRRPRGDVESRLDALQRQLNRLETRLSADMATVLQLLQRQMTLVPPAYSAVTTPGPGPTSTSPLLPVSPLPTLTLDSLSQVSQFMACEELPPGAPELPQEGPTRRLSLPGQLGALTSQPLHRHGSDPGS

COC1=C(OC)C(O)C(C/C=C(\C)CC/C=C(\C)CCC=C(C)C)C(C)C1=O (stereo not shown) [Compound 1, 4-hydroxy-2,3-dimethoxy-6-methyl-5-(3,7,11-trimethyldodeca-2,6,10-trienyl)cyclohex-2-enone]
IC50 [1]: 2.22 to 6.42 µM
central nervous system effect [2]: no particular safety concerns
binding activity with hERG ion channel (hERG ion channel): no particular safety concerns
cardiovascular effect [3]: no particular safety concerns
respiratory system effect [4]: no particular safety concerns
absorption [5]: fast absorption
metabolism profile [5]: CYP involved metabolism
organ distribution [5]: substantial organ distribution especially in the lung, heart, and kidney
tissue with the highest accumulation [6]: lung tissue
MTD at 7 days [7]: 100 mg/kg/day
MTD at 7 days [8]: 100 mg/kg/day
toxicity of the high dose ([9]; 28-day study, 100 mg/kg/day): not severely toxic
NOAEL at 28 days ([9]; Sprague-Dawley, in vivo): 30 mg/kg/day
highest non-severely toxic dose (HNSTD) [10]: 30 mg/kg/day
Tmax ([11]; Sprague-Dawley (rat), beagle (dog), rat, dog, in vivo, rats and dogs, 7-day and 28-day studies, read-out: peak time (Tmax)): 0.25 to 6 h
dose proportionality of exposure ([11]; after 1 day of treatment): trend of dose proportionality
dose proportionality of exposure ([11]; after 28 days of treatment): inconsistent phenomena
genotoxicity [12]: No genotoxicity
reproductive toxicity [13]: no reproductive toxicity
patients with Grade 3 TEAEs ([14]; 200 mg vertigo, 450 mg decreased appetite and encephalitis, unrelated to study drug): two
laboratory abnormality recorded as a TEAE ([14]; 450 mg dose group, considered unrelated to study drug): one case of hematuria of Grade 1
patients with treatment-related TEAEs ([14]; 13 patients treated): 100%
Dose Limiting Toxicities (DLTs) ([14]; 50, 100, 200, 300, 450, 600 mg, Intent-to-Treat Population): No Dose Limiting Toxicities
toxicity profile ([14]; 50-600 mg dose levels): low toxicity profile
safety and tolerability ([14]; 50-600 mg dose levels, daily for 4 weeks): generally safe and well tolerated
clinically significant changes in vital sign, ECG and physical examination parameters ([14]; Follow-Up Visit): None of the patients
diarrhea, patients ([14]; Grade 1): 69.2%
gastrointestinal disorders, patients ([14]; Grade 1): 53.8%
nausea, patients ([14]; Grade 1): 46.2%
vomiting, patients ([14]; Grade 1): 46.2%
diarrhea, patients ([14]; Grade 2): 7.7%
gastrointestinal disorders, patients ([14]; Grade 2): 38.5%
nausea, patients ([14]; Grade 2): 7.7%
vomiting, patients ([14]; Grade 2): 23.1%
Grade 4 treatment-emergent adverse events (TEAEs) ([14]; NCI-CTCAE Version 4.03): No Grade 4
diarrhea, patients ([14]; all grades): 76.9%
gastrointestinal disorders, patients ([14]; all grades): 92.3%
nausea, patients ([14]; all grades): 53.8%
vomiting, patients ([14]; all grades): 69.2%
ECOG score ([14]; all patients at all time points except two patients in the 450 mg group (scores 4 and 2)): 1
patients reporting serious adverse events (SAEs) ([14]; two each at 450 and 600 mg, none related to study drug): four
differences in AUC0-24 within the 100-300 mg dose range ([15]; Day 1 and Day 28): no significant differences
proportionality of AUC0-24 to dose ([15]; Day 1 and Day 28): not linearly proportional
dose with the highest peak concentration (Cmax) over the 100-300 mg dose range ([15]; Day 28): 200 mg
extent of absorption versus dose ([15]; human, in vivo): dose proportional
rate and extent of absorption versus dose ([15]; human, in vivo): increased in a dose proportional manner
rate of absorption versus dose ([15]; human, in vivo): non-dose proportional
proportion of Per-Protocol patients with stable disease (NSCLC): 100%
subjects alive or progression free at 12 week ([16]; 200 mg t.i.d., overall population): 4 subjects out of 20
tumor progression free rate or proportion of patients alive at 12 weeks ([16]; KRAS mutant patients, 200 mg t.i.d.): 3/14
efficacy for target and non-target lesions at lung related sites ([16]; preliminary phase 2 result): 5/11

C#Cc1cccc(Nc2ncnc3cc(OCCOC)c(OCCOC)cc23)c1 [erlotinib]
response rate [17]: 60%
